Results taken from patent US20150105252A1, “SUBSTITUTED PYRAZOLES AS HERBICIDES” (E I DU PONT DE NEMOURS AND COMPANY, priority 2013, published 2015).

Key:
corn = assay: Test C postemergence; assay type: in vivo, Zea mays; settings: for Plant response rating (scale of 0 to 100 where 0 is no effect and 100 is complete control), Corn: Postemergence, 31 g ai/ha, visually evaluated after 13 to 15 days; for Corn plant response rating / Plant response rating, Corn: postemergence; for Corn plant response rating: 62 g ai/ha, scale 0 to 100
Method in brief: (§1)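 Postemergence values come from plants sprayed at the 1- to 4-leaf stage (2–18 cm) in peat moss–vermiculite medium; preemergence values from seeds treated in a loam–sand blend. Both evaluated visually against controls after 13–15 greenhouse days, scale 0–100.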

kochia = assay: Test C postemergence; assay type: in vivo, Kochia scoparia; settings: for Plant response rating (scale of 0 to 100 where 0 is no effect and 100 is complete control), Kochia: Postemergence, 31 g ai/ha, visually evaluated after 13 to 15 days; for Kochia plant response rating / Plant response rating, Kochia: postemergence; for Kochia plant response rating: 62 g ai/ha, scale 0 to 100
Method in brief: as §1

wheat [1] = assay: Test C preemergence; assay type: in vivo, Triticum aestivum; settings: for Plant response rating (scale of 0 to 100), Wheat: Preemergence, 250 g ai/ha; for Wheat plant response rating: preemergence
Method in brief: as §1

foxtail, giant = assay: Test C postemergence; assay type: in vivo, Setaria faberii; settings: for Plant response rating (scale of 0 to 100 where 0 is no effect and 100 is complete control), Foxtail, Giant: Postemergence, 31 g ai/ha, visually evaluated after 13 to 15 days; for Foxtail, Giant plant response rating / Plant response rating, Foxtail, Giant: postemergence; for Foxtail, Giant plant response rating: 62 g ai/ha, scale 0 to 100
Method in brief: as §1

crabgrass, large = assay: Test A postemergence; assay type: in vivo, Digitaria sanguinalis
Method in brief: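 After sowing in a sand–loam mix, pots received compound preemergence by directed soil spray, or postemergence once plants reached the one- to two-leaf stage (2–10 cm). Formulation contained surfactant in a non-phytotoxic solvent. Injury was scored visually after ~10 greenhouse days, 0–100 scale.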

morningglory = assay: Test C postemergence; assay type: in vivo, Ipomoea coccinea; settings: for Plant response rating (scale of 0 to 100 where 0 is no effect and 100 is complete control), Morningglory: Postemergence, 31 g ai/ha, visually evaluated after 13 to 15 days; for Morningglory plant response rating / Plant response rating, Morningglory: postemergence; for Morningglory plant response rating: 62 g ai/ha, scale 0 to 100
Method in brief: as §1

chickweed = assay: Test C postemergence; assay type: in vivo, Stellaria media; settings: for Plant response rating (scale of 0 to 100 where 0 is no effect and 100 is complete control), Chickweed: Postemergence, 31 g ai/ha, visually evaluated after 13 to 15 days; for Chickweed plant response rating / Plant response rating, Chickweed: postemergence; for Chickweed plant response rating: 62 g ai/ha, scale 0 to 100
Method in brief: as §1

lambsquarters [2] = assay: Test C postemergence; assay type: in vivo, Chenopodium album; settings: for Plant response rating (scale of 0 to 100 where 0 is no effect and 100 is complete control), Lambsquarters: Postemergence, 31 g ai/ha, visually evaluated after 13 to 15 days; for Lambsquarters plant response rating / Plant response rating, Lambsquarters: postemergence; for Lambsquarters plant response rating: 62 g ai/ha, scale 0 to 100
Method in brief: as §1

barnyardgrass [3] = assay: Test B flood; assay type: in vivo, Echinochloa crus-galli; settings: 250 g ai/ha, visual rating on 0 to 100 scale (0 no effect, 100 complete control), 13 to 15 days
Method in brief: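 Response scored visually, 0–100 relative to controls, 13–15 days after the compound was applied into paddy water; plants were at the 2-leaf stage in pots kept flooded to 3 cm.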

barnyardgrass [4] = assay: Test C postemergence; assay type: in vivo, Echinochloa crus-galli; settings: for Plant response rating (scale of 0 to 100 where 0 is no effect and 100 is complete control), Barnyardgrass: Postemergence, 31 g ai/ha, visually evaluated after 13 to 15 days; for Barnyardgrass plant response rating / Plant response rating, Barnyardgrass: postemergence; for Barnyardgrass plant response rating: 62 g ai/ha, scale 0 to 100
Method in brief: as §1

velvetleaf = assay: Test C preemergence; assay type: in vivo, Abutilon theophrasti; settings: for Plant response rating (scale of 0 to 100), Velvetleaf: Preemergence, 250 g ai/ha; for Velvetleaf plant response rating: preemergence
Method in brief: as §1

lambsquarters [5] = assay: Test C preemergence; assay type: in vivo, Chenopodium album; settings: for Plant response rating (scale of 0 to 100), Lambsquarters: Preemergence, 250 g ai/ha; for Lambsquarters plant response rating: preemergence
Method in brief: as §1

wheat [6] = assay: Test C postemergence; assay type: in vivo, Triticum aestivum; settings: for Plant response rating (scale of 0 to 100 where 0 is no effect and 100 is complete control), Wheat: Postemergence, 31 g ai/ha, visually evaluated after 13 to 15 days; for Wheat plant response rating / Plant response rating, Wheat: postemergence; for Wheat plant response rating: 62 g ai/ha, scale 0 to 100
Method in brief: as §1

[7] = 250 g ai/ha, scale 0 to 100 (0 no effect, 100 complete control)
[8] = 125 g ai/ha, scale 0 to 100, 0 no effect, 100 complete control
[9] = 31 g ai/ha, visual rating, scale 0 to 100 (0 no effect, 100 complete control), 13 to 15 days
[10] = 62 g ai/ha, scale 0 to 100 (0 no effect, 100 complete control), 13 to 15 days
[11] = 125 g ai/ha, scale 0 to 100, 0 is no effect, 100 is complete control
[12] = Postemergence, 500 g ai/ha, visual rating after approx. 10 days, 0 to 100 scale (0 no effect, 100 complete control)
[13] = postemergence, 125 g ai/ha, about 10 days, visual rating on 0 to 100 scale (0 no effect, 100 complete control)

SMILES: CCCNC(=O)c1cc(CC)n(Cc2nc(C(F)(F)F)nn2C)n1 [Compound 109]
- Plant response rating (scale of 0 to 100 where 0 is no effect and 100 is complete control), Corn (corn): 5
- Corn plant response rating (corn): 10
- Plant response rating, Corn (corn; [7]): 15
- Plant response rating, Corn (corn; [8]): 15
- Plant response rating (scale of 0 to 100 where 0 is no effect and 100 is complete control), Kochia (kochia): 50
- Kochia plant response rating (kochia): 75
- Plant response rating, Kochia (kochia; [7]): 90
- Plant response rating, Kochia (kochia; [8]): 90
- Plant response rating (scale of 0 to 100), Wheat (wheat [1]): 85
- Wheat plant response rating (wheat [1]; [9]): 0
- Wheat plant response rating (wheat [1]; [10]): 15
- Wheat plant response rating (wheat [1]; [11]): 85
- Plant response rating (scale of 0 to 100 where 0 is no effect and 100 is complete control), Foxtail, Giant (foxtail, giant): 10
- Foxtail, Giant plant response rating (foxtail, giant): 10
- Plant response rating, Foxtail, Giant (foxtail, giant; [7]): 50
- Plant response rating, Foxtail, Giant (foxtail, giant; [8]): 45
- Crabgrass, Large plant response rating (crabgrass, large; [12]): 90
- Crabgrass, Large plant response rating (crabgrass, large; [13]): 90
- Plant response rating (scale of 0 to 100 where 0 is no effect and 100 is complete control), Morningglory (morningglory): 65
- Morningglory plant response rating (morningglory): 70
- Plant response rating, Morningglory (morningglory; [7]): 85
- Plant response rating, Morningglory (morningglory; [8]): 75
- Plant response rating (scale of 0 to 100 where 0 is no effect and 100 is complete control), Chickweed (chickweed): 40
- Chickweed plant response rating (chickweed): 50
- Plant response rating, Chickweed (chickweed; [7]): 65
- Plant response rating, Chickweed (chickweed; [8]): 55
- Plant response rating (scale of 0 to 100 where 0 is no effect and 100 is complete control), Lambsquarters (lambsquarters [2]): 45
- Lambsquarters plant response rating (lambsquarters [2]): 45
- Plant response rating, Lambsquarters (lambsquarters [2]; [7]): 85
- Plant response rating, Lambsquarters (lambsquarters [2]; [8]): 65
- Plant response rating, Barnyardgrass (barnyardgrass [3]): 0
- Plant response rating (scale of 0 to 100 where 0 is no effect and 100 is complete control), Barnyardgrass (barnyardgrass [4]): 5
- Barnyardgrass plant response rating (barnyardgrass [4]): 5
- Plant response rating, Barnyardgrass (barnyardgrass [4]; [7]): 20
- Plant response rating, Barnyardgrass (barnyardgrass [4]; [8]): 10
- Plant response rating (scale of 0 to 100), Velvetleaf (velvetleaf): 100
- Velvetleaf plant response rating (velvetleaf; [9]): 10
- Velvetleaf plant response rating (velvetleaf; [10]): 80
- Velvetleaf plant response rating (velvetleaf; [11]): 100
- Plant response rating (scale of 0 to 100), Lambsquarters (lambsquarters [5]): 100
- Lambsquarters plant response rating (lambsquarters [5]; [9]): 100
- Lambsquarters plant response rating (lambsquarters [5]; [10]): 100
- Lambsquarters plant response rating (lambsquarters [5]; [11]): 100
- Plant response rating (scale of 0 to 100 where 0 is no effect and 100 is complete control), Wheat (wheat [6]): 0
- Wheat plant response rating (wheat [6]): 0
- Plant response rating, Wheat (wheat [6]; [7]): 0
- Plant response rating, Wheat (wheat [6]; [8]): 0

SMILES: CCc1cc(C(=O)NCC(F)(F)F)nn1Cc1nc(C(F)(F)F)nn1C [Compound 107]
- Plant response rating (scale of 0 to 100 where 0 is no effect and 100 is complete control), Corn (corn): 5
- Corn plant response rating (corn): 5
- Plant response rating, Corn (corn; [7]): 40
- Plant response rating, Corn (corn; [8]): 5
- Plant response rating (scale of 0 to 100 where 0 is no effect and 100 is complete control), Kochia (kochia): 50
- Kochia plant response rating (kochia): 85
- Plant response rating, Kochia (kochia; [7]): 90
- Plant response rating, Kochia (kochia; [8]): 85
- Plant response rating (scale of 0 to 100), Wheat (wheat [1]): 50
- Wheat plant response rating (wheat [1]; [9]): 5
- Wheat plant response rating (wheat [1]; [10]): 15
- Wheat plant response rating (wheat [1]; [11]): 50
- Plant response rating (scale of 0 to 100 where 0 is no effect and 100 is complete control), Foxtail, Giant (foxtail, giant): 10
- Foxtail, Giant plant response rating (foxtail, giant): 15
- Plant response rating, Foxtail, Giant (foxtail, giant; [7]): 60
- Plant response rating, Foxtail, Giant (foxtail, giant; [8]): 55
- Crabgrass, Large plant response rating (crabgrass, large; [12]): 90
- Crabgrass, Large plant response rating (crabgrass, large; [13]): 80
- Plant response rating (scale of 0 to 100 where 0 is no effect and 100 is complete control), Morningglory (morningglory): 75
- Morningglory plant response rating (morningglory): 80
- Plant response rating, Morningglory (morningglory; [7]): 80
- Plant response rating, Morningglory (morningglory; [8]): 80
- Plant response rating (scale of 0 to 100 where 0 is no effect and 100 is complete control), Chickweed (chickweed): 100
- Chickweed plant response rating (chickweed): 100
- Plant response rating, Chickweed (chickweed; [7]): 100
- Plant response rating, Chickweed (chickweed; [8]): 100
- Plant response rating (scale of 0 to 100 where 0 is no effect and 100 is complete control), Lambsquarters (lambsquarters [2]): 40
- Lambsquarters plant response rating (lambsquarters [2]): 40
- Plant response rating, Lambsquarters (lambsquarters [2]; [7]): 90
- Plant response rating, Lambsquarters (lambsquarters [2]; [8]): 70
- Plant response rating, Barnyardgrass (barnyardgrass [3]): 40
- Plant response rating (scale of 0 to 100 where 0 is no effect and 100 is complete control), Barnyardgrass (barnyardgrass [4]): 0
- Barnyardgrass plant response rating (barnyardgrass [4]): 0
- Plant response rating, Barnyardgrass (barnyardgrass [4]; [7]): 30
- Plant response rating, Barnyardgrass (barnyardgrass [4]; [8]): 5
- Plant response rating (scale of 0 to 100), Velvetleaf (velvetleaf): 100
- Velvetleaf plant response rating (velvetleaf; [9]): 60
- Velvetleaf plant response rating (velvetleaf; [10]): 85
- Velvetleaf plant response rating (velvetleaf; [11]): 100
- Plant response rating (scale of 0 to 100), Lambsquarters (lambsquarters [5]): 100
- Lambsquarters plant response rating (lambsquarters [5]; [9]): 100
- Lambsquarters plant response rating (lambsquarters [5]; [10]): 100
- Lambsquarters plant response rating (lambsquarters [5]; [11]): 100
- Plant response rating (scale of 0 to 100 where 0 is no effect and 100 is complete control), Wheat (wheat [6]): 0
- Wheat plant response rating (wheat [6]): 5
- Plant response rating, Wheat (wheat [6]; [7]): 30
- Plant response rating, Wheat (wheat [6]; [8]): 20
